Reference: US20200060276A1, “THIAZOLE COMPOUND AND HERBICIDE” (OAT Agrio Co., Ltd., priority 2017, published 2020)

Columns and labels:
Format in all cases: in vivo
[1] = tested on: Echinochloa crus-galli (L.) P. Beauv. var. formosensis Ohwi; test: Test for Herbicidal Effect in Flooding Treatment (#2), ECHDG at 2-2.5 leaf stage; conditions: for ECHDG (2-2.5L) #2 herbicidal effect (growth inhibition rating 0-5): flooding treatment #2, 2-2.5 leaf stage; for ECHDG (2-2.5L) #2 herbicidal effect (growth inhibition grade): flooding treatment at 2-2.5 leaf stage, dose 0.2 kg/ha, visual observation on day 21
Description: (#2) Test for Herbicidal Effect in Flooding Treatment: Styrol cups each having an opening diameter of 13 cm (about 130 cm^2) were respectively filled with muddy soil (500 ml). Water (about 300 ml) was mixed with the soil such that the soil was flooded. After the soil stood still for 24 hours, Echinochloa crus-galli (L.) P. Beauv. var. formosensis Ohwi was seeded. When the Echinochloa crus-galli (L.) P. Beauv. var. formosensis Ohwi grew to reach 2-2.5 leaf stage, chemical solutions were dropped on the entire surface of treatment sections, so that each section is treated with 1 ml of the respective chemical solution (a dose of 0.2 kg/ha). Each of the chemical solutions was prepared by dissolving associated one of the compounds of the present invention in acetone, followed by dilution with water containing Tween 80 g. After the treatment, the plants were grown in a glasshouse. On day 21, a survey was conducted on the herbicidal activity by visual observation, and evaluation was made according to the following criteria. 0: Growth inhibition effect is less than 10%. 1: Growth inhibition effect is equal to or greater than 10%, and less than 30%. 2; Growth inhibition effect is equal to or greater than 30%, and less than 50%. 3: Growth inhibition effect equal to or greater than 50%, and less than 70%. 4: Growth inhibition effect is equal to or greater than 70%, and less than 90%. 5: Growth inhibition effect is equal to or greater than 90%, or complete withering is achieved. ECHDG=Echinochloa crus-galli (L.) P. Beauv. var. formosensis Ohwi, MONVA=Monochoria vaginalis, SCIJU=Scirpus juncoides, CYMIC=Cyperus microiria. The herbicidal activity of the following comparative compounds A and B (the compounds disclosed Japanese Unexamined Patent Publication No. 2003-096059) were evaluated in a manner pursuant to Test Example 1. (#2).

[2] = tested on: Scirpus juncoides; test: Test for Herbicidal Effect in Flooding Treatment (#1), SCIJU; conditions: for SCIJU #1 herbicidal effect (growth inhibition rating 0-5): flooding treatment #1; for SCIJU #1 herbicidal effect (growth inhibition grade): flooding treatment at seeding, dose 2 kg/ha, visual observation on day 21
Description: (§1) (#1) Test for Herbicidal Effect in Flooding Treatment: Styrol cups each having an opening diameter of 8 cm (about 52 cm^2) were respectively filled with soil (45 ml) which had been passed through a sieve (2 mm). Water (about 115 ml) was mixed with the soil such that the soil was flooded. After the soil stood still for 24 hours, Monochoria vaginalis, Echinochloa crus-galli (L.) P. Beauv. var. formosensis Ohwi, Cyperus difformis (umbrella sedge), and Scirpus juncoides were seeded. Each of the compounds of the present invention was dissolved in acetone, and the obtained product was then diluted with water containing Tween 80®. Each of the resultant chemical solutions was dropped on the entire surface of an associated one of treatment sections, so that each section was treated with 1 ml of the respective chemical solution (a dose of 2 kg/ha). After the treatment, the plants were grown in a glasshouse. On day 21, a survey was conducted on the herbicidal activity by visual observation, and evaluation was made according to the following criteria. 0: Growth inhibition effect is less than 10%. 1: Growth inhibition effect is equal to or greater than 10%, and less than 30%. 2; Growth inhibition effect is equal to or greater than 30%, and less than 50%. 3: Growth inhibition effect equal to or greater than 50%, and less than 70%. 4: Growth inhibition effect is equal to or greater than 70%, and less than 90%. 5: Growth inhibition effect is equal to or greater than 90%, or complete withering is achieved. ECHDG=Echinochloa crus-galli (L.) P. Beauv. var. formosensis Ohwi, MONVA=Monochoria vaginalis, SCIJU=Scirpus juncoides, CYMIC=Cyperus microiria.

[3] = tested on: Echinochloa crus-galli (L.) P. Beauv. var. formosensis Ohwi; test: Test for Herbicidal Effect in Flooding Treatment (#1), ECHDG; conditions: for ECHDG #1 herbicidal effect (growth inhibition rating 0-5): flooding treatment #1; for ECHDG #1 herbicidal effect (growth inhibition grade): flooding treatment at seeding, dose 2 kg/ha, visual observation on day 21
Description: as §1

| SMILES | ECHDG (2-2.5L) #2 herbicidal effect (growth inhibition rating 0-5) [1] | SCIJU #1 herbicidal effect (growth inhibition rating 0-5) [2] | ECHDG #1 herbicidal effect (growth inhibition rating 0-5) [3] | ECHDG (2-2.5L) #2 herbicidal effect (growth inhibition grade) [1] | SCIJU #1 herbicidal effect (growth inhibition grade) [2] | ECHDG #1 herbicidal effect (growth inhibition grade) [3] |
| --- | --- | --- | --- | --- | --- | --- |
| O=S(=O)(Oc1cccc(F)c1C[S+]([O-])c1ncc(Cl)s1)C(F)(F)F (stereo not drawn) [Compound 1B-29] | 5 (Growth inhibition effect is equal to or greater than 90%, or complete withering is achieved) | 5 (Growth inhibition effect is equal to or greater than 90%, or complete withering is achieved) | 5 (Growth inhibition effect is equal to or greater than 90%, or complete withering is achieved) | – | – | – |
| CC(C)(c1c(F)cccc1OC(F)F)S(=O)(=O)c1ncc(Cl)s1 [Compound 1C-141] | – | – | – | 4 (Growth inhibition effect is equal to or greater than 70%, and less than 90%) | 5 (Growth inhibition effect is equal to or greater than 90%, or complete withering is achieved) | 5 (Growth inhibition effect is equal to or greater than 90%, or complete withering is achieved) |
| O=S(=O)(Cc1ccc(OCc2ccccc2)cc1)c1ncc(Cl)s1 [Compound 1C-120] | – | – | – | 2 (Growth inhibition effect is equal to or greater than 30%, and less than 50%) | 4 (Growth inhibition effect is equal to or greater than 70%, and less than 90%) | 5 (Growth inhibition effect is equal to or greater than 90%, or complete withering is achieved) |
| O=S(=O)(Cc1c(F)cc(OC(F)F)cc1F)c1ncc(Cl)s1 [Compound 1C-176] | – | – | – | 5 (Growth inhibition effect is equal to or greater than 90%, or complete withering is achieved) | 5 (Growth inhibition effect is equal to or greater than 90%, or complete withering is achieved) | 5 (Growth inhibition effect is equal to or greater than 90%, or complete withering is achieved) |
| O=S(=O)(Cc1c(OCC(F)(F)F)cccc1C(F)(F)F)c1ncc(Cl)s1 [Compound 1C-56] | – | – | – | 5 (Growth inhibition effect is equal to or greater than 90%, or complete withering is achieved) | 5 (Growth inhibition effect is equal to or greater than 90%, or complete withering is achieved) | 5 (Growth inhibition effect is equal to or greater than 90%, or complete withering is achieved) |
| [O-][S+](Cc1c(F)cccc1OC(F)(F)F)c1ncc(Br)s1 (stereo not drawn) [Compound 1B-21] | 5 (Growth inhibition effect is equal to or greater than 90%, or complete withering is achieved) | 5 (Growth inhibition effect is equal to or greater than 90%, or complete withering is achieved) | 5 (Growth inhibition effect is equal to or greater than 90%, or complete withering is achieved) | – | – | – |
| [O-][S+](Cc1c(Cl)cccc1OC(F)F)c1ncc(Cl)s1 (stereo not drawn) [Compound 1B-4] | 5 (Growth inhibition effect is equal to or greater than 90%, or complete withering is achieved) | 5 (Growth inhibition effect is equal to or greater than 90%, or complete withering is achieved) | 5 (Growth inhibition effect is equal to or greater than 90%, or complete withering is achieved) | – | – | – |
| COCOc1cccc(F)c1CS(=O)(=O)c1ncc(Cl)s1 [Compound 1C-37] | – | – | – | 5 (Growth inhibition effect is equal to or greater than 90%, or complete withering is achieved) | 5 (Growth inhibition effect is equal to or greater than 90%, or complete withering is achieved) | 5 (Growth inhibition effect is equal to or greater than 90%, or complete withering is achieved) |
